Test results as given in patent US10414779B2, “Fused [1,2]imidazo[4,5-C] ring compounds substituted with guanidino groups” (3M INNOVATIVE PROPERTIES COMPANY, priority 2016, dated 2019).
Structures can show the parent of a compound that is named as a salt.

Legend:
[1] = system: Human peripheral blood mononuclear cells (PBMC); experiment: Cytokine induction in human cells (PBMC), IFN-alpha by ELISA; type: cell-based; conditions: 21-24 hrs, lowest concentration inducing cytokine at least 2× negative control, tested at 10, 1, 0.1, 0.01, 0.001, 0.0001 micromolar
Procedure: (§1) Cytokine Induction in Human Cells
(§2) Whole blood was obtained from healthy human donors and collected by venipuncture into vacutainer tubes or syringes containing EDTA. Human peripheral blood mononuclear cells (PBMC) were purified from the whole blood by density gradient centrifugation. Histopaque 1077 (15 mL, Sigma, St. Louis, Mo.) was transferred to 6×50 mL sterile polypropylene conical tubes. The Histopaque was overlayed with 15-25 mL of blood diluted 1:2 in Hank's Balanced Salts Solution (HBSS) (Gibco, Life Technology, Grand Island N.Y.). The tubes were then centrifuged at 1370 rpm for 30 minutes at 20° C., with no brake (400×g, GH 3.8A Rotor).
(§3) The interface (buffy coat) containing the PBMC was collected and placed in a new sterile 50 mL conical polypropylene centrifuge tube. […]
(§4) The number of viable cells were determined by counting with a Miltenyi FACS instrument (Miltenyi Biotec Inc., San Diego, Calif.) or by using a hemacytometer. […] Ten microliters of the diluted cells were then applied to the hemacytometer, and the number of viable PBMC were determined by microscopy. […]
(§5) IFN-alpha cytokine levels (pg/mL) were measured by ELISA (human IFN-α, pan specific, Mabtech, Cinncinnati, Ohio), IFN-gamma, TNF-alpha, and IP-10 cytokine levels (pg/mL) were measured by multiplex bead assay (magnetic beads, R & D Systems Minneapolis, Minn.) according to the manufacturer's instructions. […]

[2] = system: Human peripheral blood mononuclear cells (PBMC); experiment: Cytokine induction in human cells (PBMC), IFN-gamma by multiplex bead assay; type: cell-based; conditions: 21-24 hrs, lowest concentration inducing cytokine at least 2× negative control, tested at 10, 1, 0.1, 0.01, 0.001, 0.0001 micromolar
Procedure: as §1, §2, §3, §4, §5

N=C(N)NCCC[C@H]1COCc2nc3c(N)nc4ccccc4c3n21 [Example 1, (11S)-1-{3-[6-amino-10,11-dihydro-8H-[1,4]oxazino[4′,3′:1,2]imidazo[4,5-c]quinolin-11-yl]propyl}guanidine dihydrochloride]
MEC to Induce Cytokine IFN-alpha [1]: 1.0 µM
MEC to Induce Cytokine IFN-gamma [2]: 1.0 µM
